According to the supplement of paper PMC10307832:

These cell lines were tested with CC1=C(N=C(N=C1N)[C@H](CC(=O)N)NC[C@@H](C(=O)N)N)C(=O)N[C@@H]([C@H](C2=CN=CN2)OC3C(C(C(C(O3)CO)O)O)OC4C(C(C(C(O4)CO)O)OC(=O)N)O)C(=O)N[C@H](C)[C@H]([C@H](C)C(=O)N[C@@H]([C@@H](C)O)C(=O)NCCC5=NC(=CS5)C6=NC(=CS6)C(=O)NCCC[S+](C)C)O [Bleomycin] + N=C(N)NC(=N)NCCc1ccccc1 [Phenformin] (partner 250 µM) (assay: relative viability (nuclei count vs DMSO), 5 days (fraction); higher = more cells survive). Conditions: first compound 1 µM; main component drawn.
Procedure, shortened: (§1)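 Lung cancer cell lines, seeded in 1536-well plates, were treated the following day by pin tool with a single drug or with five library-drug doses (not always all listed) in √10 steps on top of a fixed anchor-drug dose. Cells were fixed and nuclei stained in one step after 5 days, and nuclei were counted. Relative viability is the nuclei count for treated wells divided by that for vehicle wells, reported as medians of duplicate plates.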

Cell Line	relative viability
ABC-1	0.199

The cell lines below were run with CC1=C(N=C(N=C1N)[C@H](CC(=O)N)NC[C@@H](C(=O)N)N)C(=O)N[C@@H]([C@H](C2=CN=CN2)OC3C(C(C(C(O3)CO)O)O)OC4C(C(C(C(O4)CO)O)OC(=O)N)O)C(=O)N[C@H](C)[C@H]([C@H](C)C(=O)N[C@@H]([C@@H](C)O)C(=O)NCCC5=NC(=CS5)C6=NC(=CS6)C(=O)NCCC[S+](C)C)O [Bleomycin] + COc1cccc2cc(-c3nc([C@H]4CC[C@H](C(=O)O)CC4)n4ncnc(N)c34)[nH]c12 [OSI-027] (partner 0.5 µM) in the same assay as above. Conditions: first compound 0.01 µM; main component drawn.
Procedure, shortened: as §1

Cell Line	relative viability
NCI-H520	0.272
NCI-H2405	0.617
SW 1573	0.566
NCI-H1395	0.533
201T	0.649
NCI-H1915	0.434
HCC-827	0.71
LXF-289	0.647
NCI-H2347	0.338
NCI-H650	0.433
CAL-12T	0.551
NCI-H1651	0.671
EPLC-272H	0.258
NCI-H23	0.361
NCI-H1792	0.728
NCI-H1355	0.459
NCI-H322M	0.399
NCI-H1437	0.76
NCI-H1755	0.67
NCI-H2023	0.297
HCC-15	0.645
NCI-H1793	0.271
PC-3 [JPC-3]	0.687
EKVX	0.636
LC-2-ad	0.552
NCI-H1944	0.279
NCI-H1975	0.566
SK-LU-1	0.338
ABC-1	0.394

Same assay, conditions: first compound 0.03162 µM; main component drawn

Cell Line	relative viability
NCI-H520	0.299
NCI-H2405	0.596
SW 1573	0.407
NCI-H1395	0.647
201T	0.77
NCI-H1915	0.429
HCC-827	0.81
LXF-289	0.781
NCI-H2347	0.505
NCI-H650	0.546
CAL-12T	0.465
NCI-H1651	0.524
EPLC-272H	0.257
NCI-H23	0.401
NCI-H1792	0.863
NCI-H1355	0.416
NCI-H322M	0.535
NCI-H1437	0.848
NCI-H1755	0.727
NCI-H2023	0.328
HCC-15	0.612
NCI-H1793	0.311
PC-3 [JPC-3]	0.789
EKVX	0.711
LC-2-ad	0.711
NCI-H1944	0.278
NCI-H1975	0.638
SK-LU-1	0.417
ABC-1	0.428

Same assay, conditions: first compound 0.1 µM; main component drawn

Cell Line	relative viability
NCI-H520	0.21
NCI-H2405	0.567
SW 1573	0.382
NCI-H1395	0.516
201T	0.634
NCI-H1915	0.373
HCC-827	0.6
LXF-289	0.693
NCI-H2347	0.373
NCI-H650	0.481
CAL-12T	0.389
NCI-H1651	0.551
EPLC-272H	0.21
NCI-H23	0.272
NCI-H1792	0.649
NCI-H1355	0.427
NCI-H322M	0.513
NCI-H1437	0.748
NCI-H1755	0.706
NCI-H2023	0.284
HCC-15	0.533
NCI-H1793	0.249
PC-3 [JPC-3]	0.648
EKVX	0.598
LC-2-ad	0.382
NCI-H1944	0.224
NCI-H1975	0.435
SK-LU-1	0.366
ABC-1	0.388

Same assay, conditions: first compound 0.3162 µM; main component drawn

Cell Line	relative viability
NCI-H520	0.208
NCI-H2405	0.477
SW 1573	0.258
NCI-H1395	0.367
201T	0.407
NCI-H1915	0.21
HCC-827	0.562
LXF-289	0.315
NCI-H2347	0.199
NCI-H650	0.429
CAL-12T	0.21
NCI-H1651	0.323
EPLC-272H	0.147
NCI-H23	0.141
NCI-H1792	0.459
NCI-H1355	0.258
NCI-H322M	0.464
NCI-H1437	0.522
NCI-H1755	0.718
NCI-H2023	0.183
HCC-15	0.182
NCI-H1793	0.156
PC-3 [JPC-3]	0.506
EKVX	0.398
LC-2-ad	0.302
NCI-H1944	0.179
NCI-H1975	0.153
SK-LU-1	0.272
ABC-1	0.18

Same assay, conditions: first compound 1 µM; main component drawn

Cell Line	relative viability
NCI-H520	0.198
NCI-H2405	0.346
SW 1573	0.169
NCI-H1395	0.404
201T	0.207
NCI-H1915	0.144
HCC-827	0.193
LXF-289	0.169
NCI-H2347	0.303
NCI-H650	0.234
CAL-12T	0.174
NCI-H1651	0.186
EPLC-272H	0.149
NCI-H23	0.145
NCI-H1792	0.338
NCI-H1355	0.194
NCI-H322M	0.421
NCI-H1437	0.368
NCI-H1755	0.427
NCI-H2023	0.111
HCC-15	0.152
NCI-H1793	0.138
PC-3 [JPC-3]	0.41
EKVX	0.387
LC-2-ad	0.221
NCI-H1944	0.151
NCI-H1975	0.132
